Assay [1] has as its system Cynomolgus monkey corneal endothelial cells. Nature of the assay: PCR of Na+/K+-ATPase and ZO-1 mRNA in monkey corneal endothelial cells (Example 3). In kind it is cell-based. Particulars: monkey CEC treated with SB431542 vs fibroblast phenotype control. As for the experimental part:
Method of culturing and the like was conducted in a similar manner as the Comparative Examples. In particular, materials similar to those in Example 2 were used. • SB431542: this was obtained from TOCRIS (catalog number: 1614). • Antibodies to Na^+/K^+-ATPase: those obtained from MILLIPORE (catalog number: 05-369) were used. • Antibodies to ZO-1: mice, those obtained from INVITROGEN (catalog number: 339100) were used; and rabbits, those obtained from ZYMED LABORATORIES (catalog number: 61-7300) were used. • Antibodies to GAPDH: those obtained from ABCAM (catalog number: ab36840) were used. • Immunostaining and the like: cells cultured in a similar manner to Example 2 were fixed and immunostaining was performed on Na^+/K^+-ATPase and ZO-1, followed by taking an image using a fluorescence microscope. • Western blot method: similar to Example 1, a Western blot method was performed on the Na^+/K^+-ATPase, ZO-1, and GAPDH. • Realtime PCR method: in addition, PCR was performed for Na^+/K^+-ATPase, ZO-1, and GAPDH in the following method. The primers were purchased from an oligonucleotide synthesizing company, INVITROGEN, and desalted primer were used. […] Amplified DNA fragments were electrophoresed in a 1.5% agarose gel, and were detected by ethidium bromide staining.

In assay [2] the test system is Human corneal endothelial cells. The experiment in a line: Immunostaining and Western blot of Na+/K+-ATPase and ZO-1 in human corneal endothelial cells with SB431542 (FIG. 9A A, B). In kind it is cell-based. The following applies: HCEC. As for the experimental part: For tissue staining examination, cultured MCECs or HCECs were put into Lab-Tek™ Chamber Slides™ (NUNC A/S, Roskilde, Denmark), fixed with 4% formaldehyde for 10 minutes at a room temperature (RT), and incubated for 30 minutes with 1% bovine serum albumin (BSA). Specifically, cultured MCECs or HCECs on the Lab-Tek™ Chamber Slides™ (NUNCA/S, Roskilde, Denmark) were fixed at a room temperature for 10 minutes in 4% formaldehyde, followed by incubation for 30 minutes together with 1% bovine serum albumin (BSA). In order to examine the phenotype of CEC, immunohistochemical analysis was directed to a protein associated with tight junction, ZO-1 (Zymed Laboratories, Inc., South San Francisco, Calif.), a protein associated with the pumping function, Na^+/K^+-ATPase (Upstate Biotec, Inc., Lake Placid, N.Y.), fibronectin (BD, Franklin Lakes, N.J.), and actine. As markers associated with the function of CEC, ZO-1 and Na^+/K^+-ATPase were used; fibronectin and type 1 collagen were used to evaluate the change in a fibroblastic manner; and staining of actine was used to evaluate the phenotype of the cells. Staining of ZO-1, Na^+/K^+-ATPase, type 1 collagen and fibronectin was each performed using 1:200 dilution of ZO-1 polyclonal antibody, Na^+/K^+-ATPase monoclonal antibody, and fibronectin monoclonal antibody. As to secondary antibody, 1:2000 dilution of Alexa Fluor (registered trademark) 488 label or Alexa Fluor (registered trademark) 594 label goat antimouse IgG (Life Technologies) was used. Staining of actine was performed using 1:400 dilution of Alexa Fluor (registered trademark) 488 label phalloidin (Life Technologies). […] Next, the slides were observed through a fluorescence microscope (TCS SP2 AOBS; Leica Microsystems, Welzlar, Germany).
Next, reaction was allowed for 1 hour at a room temperature with ALEXA FLUOR 488 (INVITROGEN (catalog number: A21206)) and ALEXA FLUOR 594 (INVITROGEN (catalog number: A21203)), diluted with TBS-T by 1,000 fold. […] After washing, bands were detected using an ECL-ADVAVCE Western Blotting Detection Kit (GE healthcare Japan (catalog number: RPN2135V)). […]

Here are results for one compound from patent US20230057984A1, “NORMALIZATION OF CULTURE OF CORNEAL ENDOTHELIAL CELLS” (KYOTO PREFECTURAL PUBLIC UNIVERSITY CORPORATION, priority 2011, published 2023).

On to `NC(=O)c1ccc(-c2nc(-c3ccc4c(c3)OCO4)c(-c3ccccn3)[nH]2)cc1` [SB431542], for which, in assay [1], the “expression of Na+/K+-ATPase and ZO-1, mRNA level (PCR)” value was “strongly enhanced”. Besides, the “expression of Na+/K+-ATPase and ZO-1 (immunostaining)” value in assay [2] (1 μM SB431542, in normal culture medium only a subpopulation of cells) is given as “expression was recognized in all the cells”. For the same compound, in assay [2] (SB431542), the “intracellular localization of Na+/K+-ATPase and ZO-1” value was “allows for the intracellular localization of Na^+/K^+-ATPase and ZO-1 in a cell membrane”. For the same compound, the “protein expression of Na+/K+-ATPase and ZO-1 (Western blot)” value in assay [2] (SB431542 0.1 μM, 1 μM, 10 μM) is on record as “makes it possible to maintain the protein expression thereof”.
